“Also recorded” adds a separate entry of the source.
Experiments:
[1] = tested on: HIV-1 92BR030 (subtype B clinical isolate); test: Anti-HIV efficacy in human PBMCs, isolate 92BR030; type: cell-based
Procedure: HIV human peripheral blood mononuclear cell (PBMC) assays were performed as described previously (Lanier et al., 2010, Antimicrob. Agents Chemother. 54:2901-09; Ptak et al., 2008, Antimicrob. Agents Chemother. 52:1302-17). Briefly, fresh PBMCs, seronegative for HIV and hepatitis B virus (HBV), were isolated from blood samples of the screened donors (Biological Specialty Corporation, Colmar, Pa.) by using lymphocyte separation medium (LSM; density, 1.078±0.002 g/ml; Cellgro; Mediatech, Inc.) by following the manufacturer's instructions. Cells were stimulated by incubation in 4 μg/mL phytohemagglutinin (PHA; Sigma) for 48 to 72 h. Mitogenic stimulation was maintained by the addition of 20 U/mL recombinant human interleukin-2 (rhIL-2; R&D Systems, Inc.) to the culture medium. PHA-stimulated PBMCs from at least two donors were pooled, diluted in fresh medium, and added to 96-well plates at 5×10^4 cells/well. Cells were infected (final multiplicity of infection [MOI] of ≅0.1) in the presence of 9 different concentrations of test compounds (triplicate wells/concentration) and incubated for 7 days. To determine the level of virus inhibition, cell-free supernatant samples were collected for analysis of reverse transcriptase activity (Buckheit Jr., et al., 1991, AIDS Res. Hum. Retroviruses 7:295-302). Following removal of supernatant samples, compound cytotoxicity was measured by the addition of 3-(4,5-dimethylthiazol-2-yl)-5-(3-carboxymethoxyphenyl)-2-(4-sulfophenyl)-2H-tetrazolium (MTS; CellTiter 96 reagent; Promega) by following the manufacturer's instructions.
79:6089-6101; Jagodzinski et al., 2000, J. Clin. Microbiol. 38:1247-49; Michael et al., 1999, J. Clin. Microbiol. 37:2557-63 and Vahey et al., 1999, J. Clin. Microbiol. 37:2533-37); HIV-1 Group M isolate 931N101 (Subtype C, CCR5-tropic) from Dr. Robert Bollinger and the UNAIDS Network for HIV Isolation and Characterization (Gao et al., 1994, AIDS Res. Hum. Retroviruses 10:1359-68); HIV-1 Group M isolate CMUO8 (Subtype E, CXCR4-tropic) from Dr. Kenrad Nelson and the UNAIDS Network for HIV Isolation and Characterization (Gao et al., 1994, AIDS Res. Hum. Retroviruses 10:1359-68); HIV-1 Group M isolate G3 (Subtype G, CCR5-tropic) from Alash'le Abimiku (Abimiku et al., 1994, Aids Res. Hum. Retrovir. 10:1581-83); HIV-1 Group 0 isolate BCF02 (CCR5-tropic) from Sentob Saragosti, Françoise Brun-Vézinet, and François Simon (Loussertajaka et al., 1995, J. Virol. 69:5640-49); and SIV isolate Mac251 from Dr. Ronald Desrosiers (Daniel et al., 1985, Science 228:1201-04).

[2] = tested on: HIV-1 93IN101 (subtype C clinical isolate); test: Anti-HIV efficacy in human PBMCs, isolate 93IN101; type: cell-based
Procedure: (§1) HIV human peripheral blood mononuclear cell (PBMC) assays were performed as described previously (Lanier et al., 2010, Antimicrob. Agents Chemother. 54:2901-09; Ptak et al., 2008, Antimicrob. Agents Chemother. 52:1302-17). Briefly, fresh PBMCs, seronegative for HIV and hepatitis B virus (HBV), were isolated from blood samples of the screened donors (Biological Specialty Corporation, Colmar, Pa.) by using lymphocyte separation medium (LSM; density, 1.078±0.002 g/ml; Cellgro; Mediatech, Inc.) by following the manufacturer's instructions. Cells were stimulated by incubation in 4 μg/mL phytohemagglutinin (PHA; Sigma) for 48 to 72 h. Mitogenic stimulation was maintained by the addition of 20 U/mL recombinant human interleukin-2 (rhIL-2; R&D Systems, Inc.) to the culture medium. PHA-stimulated PBMCs from at least two donors were pooled, diluted in fresh medium, and added to 96-well plates at 5×10^4 cells/well. Cells were infected (final multiplicity of infection [MOI] of ≅0.1) in the presence of 9 different concentrations of test compounds (triplicate wells/concentration) and incubated for 7 days. […] Following removal of supernatant samples, compound cytotoxicity was measured by the addition of 3-(4,5-dimethylthiazol-2-yl)-5-(3-carboxymethoxyphenyl)-2-(4-sulfophenyl)-2H-tetrazolium (MTS; CellTiter 96 reagent; Promega) by following the manufacturer's instructions. […]

[3] = tested on: HIV-1 92UG024 (subtype D clinical isolate); test: Anti-HIV efficacy in human PBMCs, isolate 92UG024; type: cell-based
Procedure: as §1

in vitro = type: cell-based; details: human
Procedure: HIV human peripheral blood mononuclear cell (PBMC) assays were performed as described previously (Lanier et al., 2010, Antimicrob. Agents Chemother. 54:2901-09; Ptak et al., 2008, Antimicrob. Agents Chemother. 52:1302-17). Briefly, fresh PBMCs, seronegative for HIV and hepatitis B virus (HBV), were isolated from blood samples of the screened donors (Biological Specialty Corporation, Colmar, Pa.) by using lymphocyte separation medium (LSM; density, 1.078±0.002 g/ml; Cellgro; Mediatech, Inc.) by following the manufacturer's instructions. Cells were stimulated by incubation in 4 μg/mL phytohemagglutinin (PHA; Sigma) for 48 to 72 h. Mitogenic stimulation was maintained by the addition of 20 U/mL recombinant human interleukin-2 (rhIL-2; R&D Systems, Inc.) to the culture medium. PHA-stimulated PBMCs from at least two donors were pooled, diluted in fresh medium, and added to 96-well plates at 5×10^4 cells/well. Cells were infected (final multiplicity of infection [MOI] of ≅0.1) in the presence of 9 different concentrations of test compounds (triplicate wells/concentration) and incubated for 7 days. […] Following removal of supernatant samples, compound cytotoxicity was measured by the addition of 3-(4,5-dimethylthiazol-2-yl)-5-(3-carboxymethoxyphenyl)-2-(4-sulfophenyl)-2H-tetrazolium (MTS; CellTiter 96 reagent; Promega) by following the manufacturer's instructions.

HIV-1NL4-3 CA = HIV-1NL4-3 CA (Human immunodeficiency virus type 1 group M subtype B, UniProt P12493); test: Surface plasmon resonance direct binding to HIV-1 CA
Procedure: Interaction analyses were performed on a Biacore 3000 optical biosensor (Biacore, Piscataway Township, NJ) with simultaneous monitoring of two flow cells Immobilization of the CA protein to CM7 sensor chips was performed following the standard amine coupling procedure according to the manufacturer's specifications. Briefly, carboxyl groups on the sensor chip surface were activated by injection of 50 μL of a solution containing 0.2 M EDC (1-ethyl-3-[3-dimethylamino-propyl]carbodiimide hydrochloride) and 0.05 M NHS(N-hydroxysuccinimide) at a flow rate of 5 μL min^−1. Next, the 50 μL of CA protein at a concentration of 6 μM in pH 5.0, 10 mM sodium acetate buffer was passed over the chip surface at 25° C. at a flow rate of 5 μL min^−1 Then, after unreacted protein had been washed out, excess active ester groups on the sensor surface were capped by the injection of 50 μL of 1 M ethanolamine (pH 8.0) at a flow rate of 5 μL min^−1. A reference surface with the nonspecific anti-gp120 antibody 17b (Thali et al., 1993, J. Virol. 67:3978-88) immobilized was generated at the same time under the same conditions and was used as background to correct nonspecific binding and for instrument and buffer artifacts.
Stock solutions of CMPD-E and CMPD-F were prepared by dissolving the compounds in 100% dimethyl sulfoxide (DMSO) to a final concentration of 10 mM. To prepare the sample for analysis, 30 μL of the compound stock solution was added to sample preparation buffer (25 mM Tris-HCl, 150 mM NaCl, pH 7.5) to a final volume of 1 mL and mixed thoroughly. Preparation of analyte in this manner ensured that the concentration of DMSO was matched with that of running buffer with 3% DMSO. Lower concentrations of each compound were then prepared by twofold serial dilutions into running buffer (25 mM Tris-HCl, 150 mM NaCl, 3% DMSO, pH 7.5). These compound dilutions were then injected over the control and CA surfaces at a flow rate of 50 μL min^−1, for a 2-min association phase, followed by a 5-min dissociation phase. […]

JEV = test: CPE assay, JEV; type: cell-based, Japanese encephalitis virus
Chikungunya = test: CPE assay, Chikungunya; type: cell-based
[4] = tested on: recombinant luciferase-expressing HIV-1 bearing the envelope glycoprotein of the HIV-1YU-2 strain; test: Single-round infection assay, HIV-1 with YU-2 envelope on Cf2Th-CCR5 cells
[5] = Human immunodeficiency virus 1, PBMC

O=C(O)c1ccc(-c2nc(-c3ccccc3)c(-c3ccccc3)[nH]2)cc1 [CMPD-E, 4-(4,5-diphenyl-1H-imidazol-2-yl)benzoic acid]
Antiviral index (TC50/IC50) ([1]; 92BR030, PBMC): >1.46 | IC50 [1, 5]: 68.7 µM | inhibition of HIV-1 92BR030 replication in PBMCs ([1]; primary PBMCs): could inhibit | IC50 [2, 5]: 48.4 µM | Antiviral index (TC50/IC50) ([2]; PBMC): >2.07 | IC50 [3, 5]: 51.8 µM | Antiviral index (TC50/IC50) ([3]; PBMC): >1.93 | CC50 at 7 days (in vitro): > 100 µM | Kd (HIV-1NL4-3 CA): 66.3 ± 4.8 µM | interaction with sensor-chip immobilized HIV-1 CA (HIV-1NL4-3 CA; SPR): directly interacted | effect on Japanese encephalitis virus replication (JEV): no inhibitory effects | IC50 (JEV; Japanese encephalitis virus): > 100 µM | effect on Chikungunya virus replication (Chikungunya): no inhibitory effects | IC50 (Chikungunya; Chikungunya virus): > 100 µM | activity in the single-round infection assay ([4]; Cf2Th-CCR5 cells, YU-2 envelope): retained the activity of the parental molecule; also recorded: retained all of the inhibitory capability of the parental compound | IC50 ([4]; Human immunodeficiency virus 1, Cf2Th-CCR5, read-out: IC50 against HIV-1 (single-round infection)): 22.5 ± 1.1 µM

From patent US20130165489A1, “Small Molecule Modulators of HIV-1 Capsid Stability and Methods Thereof” (The Trustees of the University of Pennsylvania, priority 2010, published 2013)
